“And” between values parts separate entries of the source, which are not always exact repeats. Equal entries are not always repeated. Where two headings read alike, the source gives them in different places.
How the values were obtained:
[1] = extensive presystemic metabolism; ref Kane et al. 2000; cited from earlier work
in vivo = conditions: male, Wistar, rat, po, 15 mg/kg
[2] = Metabolic stability of diltiazem in rat liver S9 fraction; assay type: in vitro ADME
[3] = Transport of diltiazem mucosal to serosal, normal sac method, rat duodenum; assay type: in vitro ADME; conditions: rifampicin pretreatment
[4] = with GFJ; cited from earlier work
[5] = cited from earlier work
P-gp = conditions: chronic administration of GFJ; ref Varma 2005; cited from earlier work
[6] = multiple dose GFJ, listed as DTZ

For `COc1ccc([C@@H]2Sc3ccccc3N(CCN(C)C)C(=O)[C@@H]2OC(C)=O)cc1` [Diltiazem, diltiazem], the oral bioavailability [1] is given as 40–50%, the AUC(0-inf) (in vivo; in vivo) is given as 51.5 ng·h/mL and the Tmax (in vivo; plasma) is given as 4.8 min. The AUC(0-t) (in vivo; plasma, AUC0–24, diltiazem 15 mg/kg p.o with water (control)) was 43.6 ng·h/mL, the AUC(0-t) (in vivo; plasma, AUC0–24, diltiazem 15 mg/kg p.o, multiple dose GFJ) was 24.8 ng·h/mL and the AUC(0-inf) (in vivo; plasma, AUC0–∞, diltiazem 15 mg/kg p.o with water (control)) was 62.8 ng·h/mL. For the same compound, the AUC(0-inf) (in vivo; plasma, AUC0–∞, diltiazem 15 mg/kg p.o, multiple dose GFJ) was 33.7 ng·h/mL, the Cmax (in vivo; plasma, Cmax, diltiazem 15 mg/kg p.o with water (control), n = 6) was 121 ± 16.4 ng/mL and the half-life (in vivo; plasma, T1/2, diltiazem 15 mg/kg p.o with water (control)) was 29.4 min. The “% metabolism of diltiazem” value ([2]; control rat liver S9, diltiazem alone 12.5 µM, 1 mg protein/ml, 37 °C, 0 min) was 0%, the “% metabolism of diltiazem” value ([2]; control rat liver S9, diltiazem alone, 5 min) was 36.61% and the “% metabolism of diltiazem” value ([2]; control rat liver S9, diltiazem alone, 10 min) was 49.01%. The “% metabolism of diltiazem” value ([2]; control rat liver S9, diltiazem alone, 20 min) was 60.15%, the “% metabolism of diltiazem” value ([2]; control rat liver S9, diltiazem alone, 30 min) was 69.56% and the “% metabolism of diltiazem” value ([2]; control rat liver S9, diltiazem alone, 40 min) was 77.47%. The “% metabolism of diltiazem” value ([2]; control rat liver S9, diltiazem alone, 60 min) was 88.91%, the “% metabolism of diltiazem” value ([2]; control rat liver S9, diltiazem alone, 60 min, listed as DTZ) was 88.9% and the “% metabolism of diltiazem” value ([2]; control rat liver S9, in presence of testosterone, 0 min) was 0%. The “% metabolism of diltiazem” value ([2]; control rat liver S9, in presence of testosterone, 5 min) was 9.19%, the “% metabolism of diltiazem” value ([2]; control rat liver S9, in presence of testosterone, 10 min) was 16.32% and the “% metabolism of diltiazem” value ([2]; control rat liver S9, in presence of testosterone, 20 min) was 29.91%. The “% metabolism of diltiazem” value ([2]; control rat liver S9, in presence of testosterone, 30 min) was 35.67%, the “% metabolism of diltiazem” value ([2]; control rat liver S9, in presence of testosterone, 40 min) was 38.16% and the “% metabolism of diltiazem” value ([2]; control rat liver S9, in presence of testosterone, 60 min) was 41.25%. The “% metabolism of diltiazem” value ([2]; liver S9 from rats treated with GFJ orally for 7 days, 0 min) was 0%, the “% metabolism of diltiazem” value ([2]; liver S9 from rats treated with GFJ orally for 7 days, 5 min) was 12.79% and the “% metabolism of diltiazem” value ([2]; liver S9 from rats treated with GFJ orally for 7 days, 10 min) was 21.11%. The “% metabolism of diltiazem” value ([2]; liver S9 from rats treated with GFJ orally for 7 days, 20 min) was 28.49%, the “% metabolism of diltiazem” value ([2]; liver S9 from rats treated with GFJ orally for 7 days, 30 min) was 31.38% and the “% metabolism of diltiazem” value ([2]; liver S9 from rats treated with GFJ orally for 7 days, 40 min) was 40.76%. For the same compound, the “% metabolism of diltiazem” value ([2]; liver S9 from rats treated with GFJ orally for 7 days, 60 min) was 48.26%, the “% metabolism of diltiazem” value ([2]; liver S9 from rats treated with GFJ orally for 7 days, 60 min, listed as DTZ) was 48.3% and the T1/2 (diltiazem 15 mg/kg p.o with single dose GFJ) was 31.2 min. The “AUC0–24 (AUC0–t), % inhibition (decrease) compared to control” value (multiple dose GFJ) was 43.22%, the “Cmax, % inhibition (decrease) compared to control” value (“Cmax, % inhibition (decrease)” for short) (multiple dose GFJ) was 66.09% and the “T1/2, % change compared to control (footnote: % inhibition; text: increased)” value (multiple dose GFJ) was 136.7%. The “Tmax, % change compared to control (footnote: % inhibition; text: increased)” value (multiple dose GFJ) was 437.5%, the “AUC0–24 (AUC0–t), % inhibition (decrease) compared to control” value [6] was 43.2% and the “AUC0–∞, % inhibition (decrease) compared to control” value [6] was 35.1%. The “Cmax, % inhibition (decrease)” value [6] was 66.0% and 66.1%, the “Tmax, % change compared to control (footnote: % inhibition; text: increased)” value [6] was 437.5% and the “AUC0–24 (AUC0–t), % inhibition (decrease) compared to control” value (single dose GFJ) was 1.26%. For the same compound, the “AUC0–∞, % inhibition (decrease) compared to control” value (single dose GFJ) was 17.98%, the “Cmax, % inhibition (decrease)” value (single dose GFJ) was 23.1% and the “T1/2, % change compared to control (footnote: % inhibition)” value (single dose GFJ) was 6.12%. The “Tmax, % change compared to control (footnote: % inhibition)” value (single dose GFJ) was 0%, the “Cmax, % inhibition (decrease)” value (single dose GFJ, listed as DTZ) was 23.14% and the “T1/2, % change compared to control (footnote: % inhibition)” value (single dose GFJ, listed as DTZ) was “no statistically significant change”. For the same compound, the “Tmax, % change compared to control (footnote: % inhibition)” value (single dose GFJ, listed as DTZ) was “no change” and the “Increase of mean cumulative efflux of diltiazem vs control” value [3] was 35.79%.
For `CCOC(=O)C1=C(COCCN)NC(C)=C(C(=O)OC)C1c1ccccc1Cl` (stereo not drawn) [amlodipine], the “increase of Tmax” value [4] is listed as 115%.
In the case of `COC(=O)C1=C(C)NC(C)=C(C(=O)OC)C1c1ccccc1[N+](=O)[O-]` [nifedipine], the “reduction of area under the curve” value ([5]; intraduodenal, GFJ administered concomitantly, ref Mohri et al. 2000) is given as 50% and the “increase of nifedipine levels” value ([5]; rats, long-term administration of GFJ, intraduodenally, ref Mohri et al. (2000)) is given as “approximately 1.62 times”.
In the case of `CC(=O)O[C@H]1C(=O)[C@@]2(C)[C@H]([C@H](OC(=O)c3ccccc3)[C@]3(O)C[C@H](OC(=O)[C@H](O)[C@@H](NC(=O)c4ccccc4)c4ccccc4)C(C)=C1C3(C)C)[C@]1(OC(C)=O)CO[C@@H]1C[C@@H]2O` [paclitaxel], the “efflux ratio (ER)” value (P-gp) is given as 20.8.

From article PMC6052858 (Die Pharmazie, 2009)
